Laboratory results taken from the supplement of paper PMC10307832.

Columns and labels:
Test in all cases: relative viability (nuclei count vs DMSO), 5 days (fraction); higher = more cells survive
[1] = compound: C1/C(=C\C2=CC=CS2)/C(=O)/C(=C/C3=CC=CS3)/C1 + CS(=O)(=O)CCNCc1ccc(-c2ccc3ncnc(Nc4ccc(OCc5cccc(F)c5)c(Cl)c4)c3c2)o1 [Lapatinib] (partner 2 µM)
Method in brief: (§1)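 Relative viability equals treated-well nuclei counts divided by vehicle-well nuclei counts. Counts came from 4× images of lung cancer cell lines grown in 1536-well plates for 5 days after pin-tool dosing on the day after seeding. Dosing used one drug alone or a fixed anchor-drug dose plus five library-drug doses (not always all listed) in √10 steps, and values are medians of duplicate plates.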

[2] = compound: C1/C(=C\C2=CC=CS2)/C(=O)/C(=C/C3=CC=CS3)/C1 + NC(=O)Nc1cc(-c2cccc(F)c2)sc1C(=O)N[C@H]1CCCNC1 [AZD7762] (partner 0.2 µM)
Method in brief: as §1

[3] = compound: C[C@]12O[C@H](C[C@]1(O)CO)n1c3ccccc3c3c4c(c5c6ccccc6n2c5c31)CNC4=O [Lestaurtinib] + CC(=O)Nc1cccc(-n2c(=O)n(C3CC3)c(=O)c3c(Nc4ccc(I)cc4F)n(C)c(=O)c(C)c32)c1 [Trametinib] (partner 0.02 µM)
Method in brief: as §1

[4] = compound: C[C@]12O[C@H](C[C@]1(O)CO)n1c3ccccc3c3c4c(c5c6ccccc6n2c5c31)CNC4=O [Lestaurtinib] + O=C(c1cc(Cc2n[nH]c(=O)c3ccccc23)ccc1F)N1CCN(C(=O)C2CC2)CC1 [Olaparib] (partner 8 µM)
Method in brief: as §1

Row | Cell Line | relative viability ([1]; first compound 0.2 µM) | relative viability ([1]; first compound 0.6325 µM) | relative viability ([1]; first compound 2 µM) | relative viability ([1]; first compound 6.325 µM) | relative viability ([1]; first compound 20 µM) | relative viability ([2]; first compound 0.2 µM) | relative viability ([2]; first compound 0.6325 µM) | relative viability ([2]; first compound 2 µM) | relative viability ([2]; first compound 6.325 µM) | relative viability ([2]; first compound 20 µM) | relative viability ([3]; first compound 0.005 µM) | relative viability ([3]; first compound 0.01581 µM) | relative viability ([3]; first compound 0.05 µM) | relative viability ([3]; first compound 0.1581 µM) | relative viability ([3]; first compound 0.5 µM) | relative viability ([4]; first compound 0.005 µM) | relative viability ([4]; first compound 0.01581 µM) | relative viability ([4]; first compound 0.05 µM) | relative viability ([4]; first compound 0.1581 µM) | relative viability ([4]; first compound 0.5 µM)
1 | 201T | 1.01 | 1.01 | 1.14 | 0.979 | 1.05 | 0.626 | 0.704 | 0.689 | 0.411 | 0.58 | 0.744 | 0.758 | 0.76 | 0.837 | 0.721 | 0.89 | 0.712 | 0.882 | 0.937 | 0.552
2 | A549 | 1.04 | 0.957 | 1.05 | 0.932 | 0.902 |  |  |  |  |  |  |  |  |  |  | 0.299 | 0.238 | 0.271 | 0.282 | 0.158
3 | A-427 | 1.09 | 1.01 | 1.01 | 1.02 | 0.982 | 0.78 | 0.836 | 0.822 | 0.724 | 0.72 | 0.783 | 0.807 | 0.729 | 0.344 | 0.203 | 0.802 | 0.745 | 0.712 | 0.485 | 0.315
4 | ABC-1 | 1.28 | 1.09 | 1.03 | 0.971 | 1.27 | 1.01 | 1.04 | 0.905 | 0.528 | 1 |  |  |  |  |  | 0.735 | 0.785 | 0.902 | 1.13 | 0.937
5 | BEN | 0.621 | 0.801 | 0.795 | 0.488 | 0.611 | 0.739 | 0.635 | 0.774 | 0.643 | 0.679 | 1.23 | 1.43 | 0.998 | 0.709 | 0.553 | 1.24 | 1.07 | 1.1 | 0.853 | 0.521
6 | CAL-12T | 0.774 | 0.827 | 0.74 | 0.604 | 0.606 | 0.597 | 0.84 | 0.592 | 0.537 | 0.547 | 0.364 | 0.337 | 0.314 | 0.288 | 0.23 | 0.837 | 0.767 | 0.877 | 0.802 | 0.344
7 | COR-L23 | 0.923 | 1.02 | 0.841 | 0.859 | 0.92 |  |  |  |  |  | 0.755 | 0.652 | 0.272 | 0.317 | 0.0849 | 0.374 | 0.428 | 0.37 | 0.339 | 0.156
8 | COR-L 105 | 0.355 | 0.37 | 0.38 | 0.304 | 0.361 |  |  |  |  |  | 0.408 | 0.419 | 0.446 | 0.347 | 0.341 | 0.64 | 0.685 | 0.792 | 0.579 | 0.498
9 | Calu-6 | 1.02 | 1.03 | 0.981 | 0.991 | 0.986 |  |  |  |  |  |  |  |  |  |  | 0.572 |  | 0.457 | 0.388 | 0.252
10 | ChaGo-K-1 |  |  |  |  |  | 0.91 | 0.9 | 0.873 | 0.581 | 0.51 | 0.899 | 1.02 | 0.704 | 0.773 | 0.645 | 0.424 | 0.464 | 0.427 | 0.387 | 0.279
11 | EBC-1 | 0.19 | 0.197 | 0.237 | 0.205 | 0.221 |  |  |  |  |  |  |  |  |  |  | 0.711 | 0.794 | 0.695 | 0.639 | 0.45
12 | EKVX | 0.184 | 0.207 | 0.264 | 0.185 | 0.199 | 0.631 | 0.685 | 0.764 |  | 0.695 | 0.507 |  | 0.362 | 0.372 | 0.356 | 0.941 |  | 0.947 | 1.07 | 0.641
13 | EMC-BAC-2 | 0.931 | 0.873 | 0.952 | 0.866 | 0.843 | 1.19 | 1.1 | 1.09 | 0.91 | 1.12 | 0.926 | 0.905 | 0.973 | 0.748 | 0.415 | 0.531 | 0.466 | 0.493 | 0.356 | 0.29
14 | EPLC-272H | 1.04 | 0.952 | 1.1 | 0.889 | 0.962 | 0.179 | 0.276 | 0.182 | 0.221 | 0.183 | 0.271 | 0.23 | 0.218 | 0.224 | 0.286 | 0.58 | 0.53 | 0.503 | 0.359 | 0.108
15 | H3255 | 0.235 | 0.296 | 0.127 | 0.227 | 0.237 | 0.916 | 0.878 | 0.945 | 0.842 | 0.914 | 0.587 | 0.787 | 0.496 | 0.546 | 0.386 | 0.563 | 0.535 | 0.54 | 0.525 | 0.397
16 | HARA | 0.768 | 0.657 | 0.874 | 0.321 | 0.818 | 0.431 | 0.271 | 0.319 | 0.361 | 0.336 | 0.639 | 0.832 | 0.685 | 1.09 | 0.268 | 1.03 | 0.899 | 0.441 | 0.886 | 0.237
17 | HCC-15 | 0.929 | 0.897 | 0.835 | 0.762 | 0.854 | 1.14 | 1.33 | 1.41 | 1.06 | 1.13 | 0.405 | 0.409 | 0.306 | 0.364 | 0.189 | 0.863 | 0.756 | 0.782 | 0.777 | 0.167
18 | HCC-44 | 0.979 | 1.02 | 1 | 0.728 | 0.975 | 1.03 | 1.03 | 0.857 | 0.84 | 1.03 | 1.04 | 1.04 | 1.04 | 1.16 | 0.593 | 0.994 | 0.984 | 0.96 | 1.16 | 0.675
